Data from US20220339135A1, “COMPOSITIONS AND METHODS FOR MODULATING AN INFLAMMATORY RESPONSE” (Enzychem Lifesciences Corporation, priority 2019, published 2022).
Entries after “also recorded” stand apart in the source; their conditions may differ.

Key:
[1] = Micelle particle size by DLS and TEM; assay type: physicochemical; conditions: micelles
Experimental: The formation of micelles composed of PLAG or POPC was prepared in RPMI1640 medium by vigorous stirring at a final concentration of 10 mg/ml. The particle size of PLAG and POPC micelles was measured by dynamic light scattering (Zetasizer 3000HS, Malvern Instruments Ltd., UK). The morphological examination of the micelles was performed by transmission electron microscopy (TEM) by dropping the samples into the carbon films on the copper grid for viewing with 2% (weight per volume) phosphotungstic acid staining.

[2] = tested on: PAK in LPL or GPIHBP-1 silenced cells; assay: In vitro phagocytosis assay in LPL or GPIHBP-1 silenced cells; assay type: cell-based; conditions: 1 h after infection
Experimental: For immunofluorescence-based measurement of phagocytosis and clearance, BMDMs were grown on glass coverslips in 24-well plates. The cells were infected with PAK (MOI, 50) for different time intervals and then were treated with 10 μg/ml gentamycin for 30 minutes to remove extracellular PAK attached to the cell surface. The infected cells were washed with ice-cold PBS several times, followed by fixing for 10 minutes at room temperature in methanol or 10% paraformaldehyde. The cells were stained with anti-Pseudomonas antibody (Abcam) and then were incubated with goat anti-rabbit IgG secondary antibody conjugated with Alexa Fluor 488. […]
For measurement of phagocytosis by flow cytometry, PAK was heat-killed and stained with 10 μM of SYTO9 (Thermo Scientific™) at room temperature for 30 minutes and then was extensively washed with ice-cold PBS several times. The staining dose of PAK was determined by flow cytometry. […] The fluorescence of extracellular PAK attached to the cell surface was quenched by replacing the medium with PBS containing 0.2% trypan blue.
For CFU counting-based phagocytosis and bacterial killing assay, PAK was cultured at 37° C. overnight with continuous shaking and was resuspended in PBS. […] The diluted aliquots were spread on LB agar plates, and CFU was counted after incubation of the plates overnight at 37° C.

[3] = tested on: chemo-radiation induced oral mucositis; assay: Chemo-radiation induced oral mucositis (CRIOM), Example 48; assay type: in vivo, mice
Experimental: Mice (7-9 weeks, Balb/[…]) were administered intraperitoneally 5-FU (100 mg/kg, Sigma Aldrich). After 1 hr, mice head received 20 Gy using x-ray irradiatior (X-RAD 320, 1.8 Gy/min). Custom-made lead shields were used for mice to limit the radiation to the heads. PLAG (Enzychem Lifesciences Co.) was administered orally with 250 mg/kg once daily. The experimental design of the study was represented in schematic design. […] Toluidine blue stains ribonucleotides and detect inflammatory tissues.

[4] = tested on: ERK, p38 MAPK, JNK in THP-1 cells; assay: Gemcitabine-induced phosphorylation of ERK, p38 MAPK, JNK, western blot; assay type: cell-based, human
Experimental: Total cells were lysed on ice for 30 minutes in RIPA buffer composed of 50 mM Tris-HCl (pH 7.4), 150 mM NaCl, 2 mM EDTA, 1% NP-40, 0.5% sodium deoxycholate, 0.1% SDS, 1 mM phenylmethylsulfonyl fluoride (PMSF), 10 mM sodium fluoride, 2 mM sodium pyrophosphate, 10 mM β-glycerophosphate, 10 mM sodium orthovanadate. Membrane-and-cytoplasmic protein fractions of cultured cells were obtained with Mem-PER Plus Membrane Protein Extraction Kit (Thermo Scientific, MA, USA) according to the manufacturer's instructions. The lysates were centrifuged at 13,000 rpm for 20 minutes at 4° C. and protein concentrations were determined using the Bradford assay (Bio-Rad Laboratories). Denatured samples were mixed with a 5×SDS-PAGE loading buffer and heated to 100° C. for 15 min. The samples were separated on the 10% of SDS-PAGE gel and transferred to polyvinylidene difluoride (PVDF) membranes (Merck Millipore Corporation, MA, USA). Membranes were blocked with 5% non-fat milk in PBS (10 mM Tris-HCl, pH7.5, 150 mM NaCl) for 1 h and probed with primary antibodies against ERK1/2, phospho-ERK1/2, P38, phospho-P38, SAPK/JNK, phospho-SAPK/JNK, Na, K-ATPase, α-Tubulin, and β-actin from Cell Signaling Technology (MA, USA), Rac1 from Merck Millipore Corporation), p47phox and phospho-p47phox from Invitrogen, adenosine receptor A1 from Abcam, β arrestin-1 from Santa Cruz Technology for overnight at 4° C. The blots were washed and incubated with appropriate secondary antibodies and visualized using Pierce ECL Western Blotting Substrate (Thermo Scientific).

skin erythema injury = assay: Radiation-induced skin erythema in mice; assay type: in vivo; conditions: 8Gy TBI, PLAG 250 mg/kg daily 17 days
Experimental: 9 weeks Balb/c mice were divided into two groups: 1) radiated group (8Gy of TBI by γ-ray) and 2) PLAG (250 mg/kg of PLAG daily for 17 days) administrated group with radiation (8Gy of TBI) (FIG. 38A).

HMGB1 and S100A9 = assay: Radiation-induced DAMP molecules in mice serum, western blot; assay type: in vivo; conditions: 6.11Gy, PLAG 50, 250 mg/kg oral 3 days
Experimental: The total-body of mice were irradiated with a gamma-ray of 6.11Gy on day 0. After that, the body weight of 1 day was measured and divided into 3 groups according to the average. PLAG (50, 250 mg/kg) or PBS was orally administered for 3 days from 1 day and sacrificed on the 3rd day. Add 3 ul serum to 97 ul of 1×SDS sample buffer and boiled for 10 min. Proteins from each sample were separated by sodium dodecyl sulfate-polyacrylamide gel electrophoresis on 8% polyacrylamide gels and the proteins were blotted onto a PVDF membrane (Millipore Corporation, Germany). The membrane was blocked with 5% non-fat dried milk (BD bioscience) in PBS containing 0.05% Tween-20 (Calbiochem) for 1 h. The membrane was incubated with anti-HMGB1 (abcam), anti-MRP14 (abcam) at 4° C. overnight. After washing with PBS containing 0.05% Tween-20, the membrane was stained with goat anti-rabbit IgG peroxidase (ENZO). Target proteins were detected with Immobilon Western Chemiluminescent HRP Substrate (Millipore Corporation).

CCCCC/C=C\C/C=C\CCCCCCCC(=O)OC(COC(C)=O)COC(=O)CCCCCCCCCCCCCCC (racemic) [PLAG, 1-palmitoyl-2-linoleoyl-3-acetylglycerol]
average diameter (DLS) [1]: 107.6 nm
particle shape (TEM) [1]: spherical shape
PLAG effect on enhanced bacterial phagocytosis in silenced cells [2]: enhances neither phagocytosis nor bacterial killing; also recorded: abrogated
mucositis and ulcer in tongues ([3]; PLAG 250 mg/kg once daily, day 9): no mucositis and ulcer
mice tongues stained with toluidine blue ([3]; PLAG treated group n=8, day 9): one out of eight
gemcitabine-induced phosphorylation of ERK and p38 MAPK [4]: dose-dependently decreased
gemcitabine-induced phosphorylation of JNK [4]: did not
erythema on mouse foot and tail (skin erythema injury): significantly weak or no erythema
level of HMGB1 and S100A9 induced by radiation (HMGB1 and S100A9): significantly decreased
